Measured values taken from patent EP2961395B1, “TARGETED NANOPARTICLES” (CALIFORNIA INSTITUTE OF TECHNOLOGY, priority 2013, dated 2014).
Where two headings read alike, the source gives them in different places. One block for each compound: values may come before it.

Tests used:
[1] = pKa determination by absorbance change on titration; type: physicochemical; conditions: 10^-3 M PBA in 0.1 M PBS, titrated with 1 N NaOH, absorbance at 268 nm
Description: The pKa of the synthesized PBA compounds were found by measuring the change in absorbance of PBA as it converted from trigonal (in low pH) to tetrahedral (in high pH) conformation. To a solution of 10^-3 M PBA in 0.1 M PBS, pH 7.4 was titrated 1 N NaOH. pH was recorded and corresponding samples were removed for absorbance measurements at 268 nm. Table 2. pKa and binding constants of PBA compounds
pKa values of the modified PBAs were determined by absorbance changes due to conformational change of PBA from trigonal to tetrahedral form as the pH was increased (Table 2). […] Thus, at physiological pH, most of the PBA was present in the reactive anionic tetrahedral form. Binding constants between PBA and MAP were found by competitive binding with Alizarin Red S in 0.1 M PBS, pH 7.4.

BT-474 xenograft tumors = system: BT-474 xenograft tumors
Description: Treatments began on day 1. […] All treatments were freshly prepared and given via intravenous tail vein injection. Injections were standardized at 150 µl per 20 g body weight of mice. […] Tumor sizes were recorded three times a week using caliper measurements (length x width^2/2) and health of the animals was continuously monitored. Animals were euthanized when tumor volumes exceeded 1000 mm^3. Six weeks after beginning of the treatment, animals were euthanized by CO2 asphyxiation.

MCF-7 = experiment: Cytotoxicity assay (CellTiter 96 AQueous One) in MCF-7; type: cell-based; conditions: Homo sapiens, MCF7; MCF-7 (HER2 -); 72 h; CPT-containing items based on CPT content
From the text: (§1) Wells containing untreated cells were used as controls.

MDA-MB-231 = experiment: Cytotoxicity assay (CellTiter 96 AQueous One) in MDA-MB-231; type: cell-based; conditions: Homo sapiens; MDA-MB-231 (HER2 -); 72 h; CPT-containing items based on CPT content
From the text: as §1

SKBR-3 = experiment: Cytotoxicity assay (CellTiter 96 AQueous One) in SKBR-3; type: cell-based; conditions: Homo sapiens, SK-BR-3; SKBR-3 (HER2 +); 72 h; CPT-containing items based on CPT content
From the text: as §1

BT-474 = experiment: Cytotoxicity assay (CellTiter 96 AQueous One) in BT-474; type: cell-based; conditions: Homo sapiens; BT-474 (HER2 +); 72 h; CPT-containing items based on CPT content
From the text: as §1

[2] = Plasma pharmacokinetics of free CPT in CD2F1 mice (comparison)
Description: A DNA ladder is loaded in Lane 1. […] A DNA ladder is loaded in Lane 1. […] Free CPT injected at 10 mg/kg into CD2F1 mice is shown as comparison. (A) Plasma concentration of polymer bound CPT as a function of time. […] (A) Percent injected dose (ID) of total CPT per gram of tumor, heart, liver, spleen, kidney or lung. (B) Percentage of total CPT in each organ that is unconjugated in tumor, heart, liver, spleen, kidney and lung. (C) Total concentration of CPT in plasma.

[3] = 80 mg/kg i.v. once per week for 3 weeks
[4] = 8 mg/kg (MAP-CPT on CPT basis) i.v. once per week for 3 weeks

pKa [1]: 8.8
SMILES: OB(O)c1ccccc1 [PBA, phenylboronic acid]

SMILES: CCc1c2c(nc3ccc(OC(=O)N4CCC(N5CCCCC5)CC4)cc13)-c1cc3c(c(=O)n1C2)COC(=O)[C@]3(O)CC [Irinotecan]
NTRD (number of treatment related death) (BT-474 xenograft tumors; [3]): 1 | Nend (number of animals surviving to end of study) (BT-474 xenograft tumors; [3]): 8/7 | Neuthan (number of animals euthanized due to exceeding tumor size limit of 1000 mm^3) (BT-474 xenograft tumors; [3]): 0 | Nreg to zero (number of animals with tumors regressed to zero at the end of study) (BT-474 xenograft tumors; [3]): 0 | tumor inhibition compared to control group (BT-474 xenograft tumors; [3]): non-significant tumor inhibition

SMILES: CC[C@@]1(O)C(=O)OCc2c1cc1n(c2=O)Cc2cc3ccccc3nc2-1 [CPT, Camptothecin]
IC50 (MCF-7): 300 nM | IC50 (MDA-MB-231): 100 nM | Mean tumor volume (BT-474 xenograft tumors; [4]): 808 mm^3 | Median tumor volume (BT-474 xenograft tumors; [4]): 417 mm^3 | NTRD (number of treatment related death) (BT-474 xenograft tumors; [4]): 4 | Nend (number of animals surviving to end of study) (BT-474 xenograft tumors; [4]): 8/0 | Neuthan (number of animals euthanized due to exceeding tumor size limit of 1000 mm^3) (BT-474 xenograft tumors; [4]): 4 | Nreg to zero (number of animals with tumors regressed to zero at the end of study) (BT-474 xenograft tumors; [4]): 0 | tumor inhibition compared to control group (BT-474 xenograft tumors; [4]): no tumor inhibition | IC50 (SKBR-3): 30 nM | IC50 (BT-474): 4000 nM | AUC ([2]; CD2F1, mouse, in vivo, 10 mg/kg): 1600 ng·h/mL | injected dose remaining in circulation ([2]; after 8 h, CPT alone at 10 mg/kg): 0.01%
